{
  "source": "patent US20220395497A1",
  "about": "“Cancer Treatment Using Camptothecin Derivatives” (priority 2019, published 2022)",
  "origin": "cited, not measured here",
  "key": {"reGBM patients [1]": {"test_system": "reGBM patients", "conditions": "cited from earlier work; for Diarrhoea Grades 3-5 / Neutropenia Grades 3-4 / Thrombocytopenia Grades 3-4: reGBM, single agent"}, "[2]": {"test_system": "Colorectal cancer patients", "conditions": "single agent, bolus, N = 223; cited from earlier work"}, "[3]": {"test_system": "Recurrent Colorectal cancer patients", "conditions": "N = 316 across 2 studies, cited from earlier work"}, "[4]": {"test_system": "Colorectal cancer patients", "conditions": "w/5FU, LV, bolus, N = 225; cited from earlier work"}, "[5]": {"test_system": "Metastatic Colorectal cancer patients", "conditions": "previously treated, cited from earlier work"}, "reGBM patients [6]": {"test_system": "reGBM patients", "conditions": "cited from earlier work"}, "reGBM patients [7]": {"test_system": "reGBM patients", "conditions": "single agent/placebo, N = 64; cited from earlier work"}, "reGBM patients [8]": {"test_system": "reGBM patients", "conditions": "single agent vs Enzastaurin, N = 92, Treated = 84; cited from earlier work"}, "[9]": {"conditions": "in vivo; cited from earlier work"}, "[10]": {"test_system": "cells in the S phase of the cell cycle", "conditions": "in vitro; cited from earlier work"}, "GBM/AA patients": {"test_system": "GBM/AA patients", "conditions": "single agent Phase II, N = 20 in heavily pretreated bev failures; cited from earlier work"}, "BCBM patients": {"test_system": "BCBM patients", "conditions": "Phase 3 BEACON Study, N = 425; cited from earlier work"}},
  "note": "Like-named read-outs stand apart in the source and are kept apart here. Marks after values point to notes of the source that are not given here.",
  "data": [
    {"molecule": "CC[C@@]1(O)C(=O)OCc2c1cc1n(c2=O)Cc2c-1nc1ccccc1c2/C=N/OC(C)(C)C", "note": "[Gimatecan]", "values": [
      {"measurement": "treatment-related toxicities of thrombocytopenia, leukopenia, and neutropenia, patients", "setting": "reGBM patients [1]; Phase II trial, oral", "result": "10-18%"},
      {"measurement": "PFS6", "setting": "reGBM patients [1]; in vivo", "result": 12, "unit": "%"},
      {"measurement": "Diarrhoea Grades 3-5", "setting": "reGBM patients [1]; N = 10 High Dose", "result": 0, "unit": "%"},
      {"measurement": "Neutropenia Grades 3-4", "setting": "reGBM patients [1]; N = 10 High Dose", "result": 30, "unit": "%"},
      {"measurement": "Thrombocytopenia Grades 3-4", "setting": "reGBM patients [1]; N = 10 High Dose", "result": 40, "unit": "%"},
      {"measurement": "Diarrhoea Grades 3-5", "setting": "reGBM patients [1]; N = 10 Low Dose", "result": 0, "unit": "%"},
      {"measurement": "Neutropenia Grades 3-4", "setting": "reGBM patients [1]; N = 10 Low Dose", "result": 0, "unit": "%"},
      {"measurement": "Thrombocytopenia Grades 3-4", "setting": "reGBM patients [1]; N = 10 Low Dose", "result": 5, "unit": "%"}
    ]},
    {"molecule": "CCc1c2c(nc3ccc(OC(=O)N4CCC(N5CCCCC5)CC4)cc13)-c1cc3c(c(=O)n1C2)COC(=O)[C@]3(O)CC", "note": "[Irinotecan]", "values": [
      {"measurement": "Diarrhoea Grade 4", "setting": "[2]", "result": 7, "unit": "%"},
      {"measurement": "Nausea Grades 3,4", "setting": "[2]", "result": 16, "unit": "%"},
      {"measurement": "Neutropenia Grade 4", "setting": "[2]", "result": 12, "unit": "%"},
      {"measurement": "Vomiting Grades 3,4", "setting": "[2]", "result": 12, "unit": "%"},
      {"measurement": "Diarrhoea Grade 4", "setting": "[3]; average across 2 studies", "result": 22, "unit": "%*"},
      {"measurement": "Nausea Grades 3,4", "setting": "[3]; average across 2 studies", "result": 12, "unit": "%*"},
      {"measurement": "Vomiting Grades 3,4", "setting": "[3]; average across 2 studies", "result": 14, "unit": "%*"},
      {"measurement": "Neutropenia Grade 4", "setting": "[3]", "result": 18, "unit": "%"},
      {"measurement": "Diarrhoea Grade 4", "setting": "[4]", "result": 5, "unit": "%"},
      {"measurement": "Nausea Grades 3,4", "setting": "[4]", "result": 16, "unit": "%"},
      {"measurement": "Neutropenia Grade 4", "setting": "[4]", "result": 24, "unit": "%"},
      {"measurement": "Vomiting Grades 3,4", "setting": "[4]", "result": 10, "unit": "%"},
      {"measurement": "Diarrhoea Grade 4", "setting": "[5]; N = 304, late diarrhoea", "result": 14, "unit": "%**"},
      {"measurement": "Nausea Grades 3,4", "setting": "[5]; N = 304", "result": 17, "unit": "%"},
      {"measurement": "Neutropenia Grade 4", "setting": "[5]; N = 304", "result": 12, "unit": "%"},
      {"measurement": "Vomiting Grades 3,4", "setting": "[5]; N = 304", "result": 12, "unit": "%"}
    ]},
    {"molecule": "CC[C@@]1(O)C(=O)OCc2c1cc1n(c2=O)Cc2c-1nc1ccccc1c2CC[Si](C)(C)C", "note": "[Karenitecin]", "values": [
      {"measurement": "neutropenia and thrombocytopenia, patients", "setting": "reGBM patients [6]; Phase I trial", "result": "13-23%"},
      {"measurement": "Diarrhoea Grades 3-5", "setting": "reGBM patients [6]; reGBM, single agent, N = 30", "result": 3, "unit": "%"},
      {"measurement": "Neutropenia Grades 3-4", "setting": "reGBM patients [6]; reGBM, single agent, N = 30", "result": 23, "unit": "%"},
      {"measurement": "Thrombocytopenia Grades 3-4", "setting": "reGBM patients [6]; reGBM, single agent, N = 30", "result": 13, "unit": "%"}
    ]},
    {"molecule": "O=NN(CCCl)C(=O)NC1CCCCC1", "note": "[Lomustine]", "values": [
      {"measurement": "Diarrhoea Grades 3-5", "setting": "reGBM patients [7]", "result": 2, "unit": "%"},
      {"measurement": "Neutropenia Grades 3-4", "setting": "reGBM patients [7]", "result": 3, "unit": "%"},
      {"measurement": "Thrombocytopenia Grades 3-4", "setting": "reGBM patients [7]", "result": 22, "unit": "%"},
      {"measurement": "Nausea Grades 3-5", "setting": "reGBM patients [8]", "result": 0, "unit": "%"},
      {"measurement": "Neutropenia Grades 3-4", "setting": "reGBM patients [8]", "result": 20, "unit": "%"},
      {"measurement": "Thrombocytopenia Grades 3-4", "setting": "reGBM patients [8]", "result": 25, "unit": "%"}
    ]},
    {"molecule": "CCc1c2c(nc3ccc(O)cc13)-c1cc3c(c(=O)n1C2)COC(=O)[C@]3(O)CC", "note": "[SN-38]", "values": [
      {"measurement": "ratio of the lactone AUC to total AUC", "setting": "[9]", "result": 0.51}
    ]},
    {"molecule": "CC[C@@]1(O)C(=O)OCc2c1cc1n(c2=O)Cc2cc3ccccc3nc2-1", "note": "[camptothecin]", "values": [
      {"measurement": "sensitivity to camptothecin-induced apoptosis, S phase cells vs cells in the G1 or G2 phase", "setting": "[10]", "result": "100 to 1,000 times"}
    ]},
    {"molecule": "CC[C@@]1(O)C(=O)OCc2c1cc1n(c2=O)Cc2cc3c(CN(C)C)c(O)ccc3nc2-1", "note": "[topotecan]", "values": [
      {"measurement": "ratio of the lactone AUC to total AUC", "setting": "[9]", "result": 0.37}
    ]},
    {"molecule": "Etirinotecan", "values": [
      {"measurement": "Diarrhoea Grades 3-5", "setting": "GBM/AA patients", "result": 10, "unit": "%"},
      {"measurement": "Diarrhoea Grades 3-5", "setting": "BCBM patients", "result": 10, "unit": "%"},
      {"measurement": "Nausea Grades 3-5", "setting": "BCBM patients", "result": 4, "unit": "%"},
      {"measurement": "Neutropenia Grades 3-4", "setting": "BCBM patients", "result": 10, "unit": "%"}
    ]}
  ]
}
